What was measured:
[1] = system: HCT-116 human colon cancer cells; assay: Cytotoxicity evaluation, ATPLite cell viability; format: cell-based; conditions: for IC50: Homo sapiens, HCT-116, 48 h, concentration required to inhibit cell growth by 50%, 2 days incubation; for Selectivity index: ratio of IC50 for HEK-293/IC50 for HCT-116
[2] = system: HCT-116 human colon cancer cells; assay: Cytotoxicity evaluation, ATPLite cell viability; format: cell-based; conditions: at 100 µM, compared with reference H-89
Procedure: (§1) The 26 test compounds (as listed in Figure 4) were further evaluated at 100 µM for their cytotoxicity against HCT-116 human colon cancer cells and HEK-293 normal human embryonic kidney cells. […] Their chemical structures are shown in Figure S1 in the Supplementary Material.
(§2) Compounds were evaluated at 100 µM for their cytotoxicity against HCT-116 human colon cancer cells and HEK-293 normal human embryonic kidney cells. Cells were seeded at a density of 1 × 10^4 cells/well in 96-well plates and allowed to attach overnight. Cells were then treated with test compounds or 1% DMSO (vehicle control) and incubated at 37 °C in an atmosphere of 5% CO2 for 2 days. The ATPLite kit (PerkinElmer, Waltham, MA, USA) was used for detecting the cell viability.

[3] = system: HEK-293 normal human embryonic kidney cells; assay: Cytotoxicity evaluation, ATPLite cell viability; format: cell-based; conditions: HEK293, 48 h, concentration required to inhibit cell growth by 50%, 2 days incubation
Procedure: as §1, §2

[4] = target: T1, Akt kinase (Homo sapiens, UniProt P31749); assay: Akt kinase inhibition assay (EKS-400A assay kit); format: biochemical
T1 construct: purchased Enzo Life Sciences EKS-400A
Procedure: The 48 selected compounds from virtual screening were assessed at 100 µM for their ability to inhibit Akt kinase activity using the EKS-400A assay kit (Enzo Life Sciences, Farmingdale, NY, USA).
Compounds were evaluated at 100 µM for their ability to inhibit Akt kinase activity using the EKS-400A assay kit (Enzo Life Sciences). Test compounds or 1% DMSO (vehicle control) were incubated with the 8 ng pure Akt kinase in Hanks’ Balanced Salt Solution (HBSS) at 37 °C for 30 min.

[5] = target: T1, Akt kinase; conditions: cited from earlier work

T1 sequence (P31749 whole entry): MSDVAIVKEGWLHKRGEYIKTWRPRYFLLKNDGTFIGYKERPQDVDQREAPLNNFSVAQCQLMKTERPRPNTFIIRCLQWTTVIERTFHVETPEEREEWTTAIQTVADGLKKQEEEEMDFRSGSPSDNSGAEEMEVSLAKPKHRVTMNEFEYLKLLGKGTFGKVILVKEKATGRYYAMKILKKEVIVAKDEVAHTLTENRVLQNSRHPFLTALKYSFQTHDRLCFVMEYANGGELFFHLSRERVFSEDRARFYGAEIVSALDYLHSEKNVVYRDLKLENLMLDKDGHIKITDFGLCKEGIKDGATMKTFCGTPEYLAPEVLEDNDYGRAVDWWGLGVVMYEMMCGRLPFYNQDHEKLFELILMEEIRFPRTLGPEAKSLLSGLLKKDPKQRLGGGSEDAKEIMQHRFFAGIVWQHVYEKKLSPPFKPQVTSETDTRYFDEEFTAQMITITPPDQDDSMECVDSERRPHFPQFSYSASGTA

Q: Which IC50 [1] does the source give for `Cc1cccc(-c2nc3cc(/N=C/c4c(C)cc(O)c(C)c4O)ccc3o2)c1` [a44] here?
A: 50.6 µM

Q: What about the Selectivity index [1] of the same compound?
A: 2.0

Q: What about the “cytotoxic activity against HCT-116 compared to H-89” value [2] of the same compound?
A: more potent or comparable cytotoxic activity to that of H-89

Q: And the IC50 [3]?
A: 102 µM

Q: What does the source list for `Nc1ncnc2nc(SCC(=O)Nc3ccc(Br)cc3)[nH]c12` [Compound a48]?
A: IC50 [1]: 9.5 µM; Selectivity index [1]: 16.1; IC50 [3]: 153 µM; inhibition at 100 µM ([4]; at 100 µM): 75%; remaining activity at 100 µM ([4]; compound at 100 µM, read-out: Akt kinase residual activity): < 60%

Q: For `Cc1cccc(Nc2nc3nonc3nc2N/N=C/c2cc3c(cc2Br)OCO3)c1C` [a33], which IC50 [1] is on record?
A: 109 µM

Q: What about the Selectivity index [1] of the same compound?
A: 1.5

Q: What about the “cytotoxic activity against HCT-116 compared to H-89” value [2] of the same compound?
A: more potent or comparable cytotoxic activity to that of H-89

Q: And the IC50 [3]?
A: 165 µM

Q: What does the source list for `O=S(=O)(NCCNC/C=C/c1ccc(Br)cc1)c1cccc2cnccc12` [Compound H-89, H-89, reference compound]?
A: IC50 [1]: 78.9 µM; IC50 [3]: 112 µM

Q: With `Cc1nn(C)cc1-c1nnc(SCC(=O)Nc2cc(C(F)(F)F)ccc2Cl)n1-c1ccc(Cl)cc1` [Compound a46] as the compound, how does the IC50 [1] read?
A: 11.1 µM

Q: What about the Selectivity index [1] of the same compound?
A: 12.5

Q: What about the IC50 [3] of the same compound?
A: 139 µM

Q: And the IC50 [4]?
A: 201 µM

Q: Which “pan-Akt kinase inhibitor activity” value [5] does the source give for `CCn1c(-c2nonc2N)nc2c(C#CC(C)(C)O)ncc(OC[C@H]3CCCNC3)c21` [GSK690693] here?
A: low nanomolar activity
